Key:
Format in all cases: in vivo
Conditions in all cases: 14 days after application
[1] = system: barnyardgrass (Echinochloa crus-galli, ECHCG); assay: Pre-emerge greenhouse herbicide activity screening, phytotoxicity rating
Text: (§1) A standard greenhouse herbicide activity screening system was used to evaluate the herbicidal efficacy and crop safety of these test compounds. Seven broadleaf weed species including redroot pigweed (Amaranthus retroflexus, AMARE), velvetleaf (Abutilon theophrasti, ABUTH), sicklepod (Cassia obtusifolia, CASOB), ivyleaf morningglory (Ipomoea hederacea, IPOHE), lambsquarters (Chenopodium album, CHEAL), common ragweed (Ambrosia artemisiifolia L., AMBEL), and cocklebur (Xanthium strumarium, XANST) were used as test species. Four grass weed species including green foxtail (Setaria viridis, SETVI), barnyardgrass (Echinochloa crus-galli, ECHCG), johnsongrass (Sorghum halepense, SORHA), and large crabgrass (Digitaria sanguinalis, DIGSA) were also used. In addition, three crop species, field corn (Zea mays L., var. Dekalb 535, CORN), soybean (Glycine max L., var. Pella 86, SOY), and upland rice (Oryza sp., var.Tebonnet, RICE) were included.
(§2) All plants were grown in 10 cm square plastic pots which were filled with a sandy loam soil mix. For pre-emerge tests, seeds were planted one day prior to application of the test compounds. For post-emerge tests, seeds were planted 8-21 days prior to the test to allow emergence and good foliage development prior to application of the test substances. At the time of the post-emerge application, plants of all species were usually at the 2-3 leaf stage of development.
(§3) All test compounds were dissolved in acetone and applied to the test units in a volume of 187 1/ha. Test materials were applied at rates ranging from 15 g ai/ha to 1000 g ai/ha using a track sprayer equipped with a TJ8001E even flow flat fan spray nozzle. Plants were arranged on a shelf so that the top of the canopy (post-emerge) or top of the soil surface (pre-emerge) was 40-45 cm below the nozzle. Pressurized air was used to force the test solution through the nozzle as it was mechanically advanced (via electrically driven chain drive) over the top of all test plants/pots. This application simulates a typical commercial field herbicide application.
(§4) In the post-emerge test, a commercial non-ionic surfactant was also included (0.25% v/v) to enhance wetting of the leaf surfaces of target plants. Immediately after application, test units of the pre-emerge applications were watered at the soil surface to incorporate the test materials. Subsequently, these test units were bottom-watered. Post-emerge test units were always bottom-watered.
(§5) At 14 days after application of the test materials, phytotoxicity ratings were recorded. A rating scale of 0-100 was used as previously described in Research Methods in Weed Science, 2nd edition, B. Truelove, Ed., Southern Weed Science Society, Auburn University, Auburn, Ala., 1977. Briefly, “0” corresponds to no damage and “100” corresponds to complete death of all plants in the test unit. This scale was used both to determine efficacy against weed species and damage to crop species. Herbicide activity data for various compounds of this invention, which are shown by compound No. in Tables I-VI, are shown in Tables VIII-IX.

[2] = system: common ragweed (Ambrosia artemisiifolia L., AMBEL); assay: as above
Text: as §1, §2, §3, §4, §5

[3] = system: green foxtail (Setaria viridis, SETVI); assay: as above
Text: as §1, §2, §3, §4, §5

[4] = system: ivyleaf morningglory (Ipomoea hederacea, IPOHE); assay: as above
Text: as §1, §2, §3, §4, §5

[5] = system: johnsongrass (Sorghum halepense, SORHA); assay: as above
Text: as §1, §2, §3, §4, §5

[6] = system: lambsquarters (Chenopodium album, CHEAL); assay: as above
Text: as §1, §2, §3, §4, §5

[7] = system: large crabgrass (Digitaria sanguinalis, DIGSA); assay: as above
Text: as §1, §2, §3, §4, §5

[8] = system: redroot pigweed (Amaranthus retroflexus, AMARE); assay: as above
Text: as §1, §2, §3, §4, §5

[9] = system: sicklepod (Cassia obtusifolia, CASOB); assay: as above
Text: as §1, §2, §3, §4, §5

[10] = system: velvetleaf (Abutilon theophrasti, ABUTH); assay: as above
Text: as §1, §2, §3, §4, §5

[11] = system: field corn (Zea mays L., var. Dekalb 535, CORN); assay: Pre-emerge greenhouse screening, crop safety (phytotoxicity rating)
Text: as §1, §2, §3, §4, §5

[12] = system: soybean (Glycine max L., var. Pella 86, SOY); assay: as above
Text: as §1, §2, §3, §4, §5

[13] = system: upland rice (Oryza sp., var.Tebonnet, RICE); assay: as above
Text: as §1, §2, §3, §4, §5

[14] = system: barnyardgrass (Echinochloa crus-galli, ECHCG); assay: Post-emerge greenhouse herbicide activity screening, phytotoxicity rating
Text: as §1, §2, §3, §4, §5

[15] = system: common ragweed (Ambrosia artemisiifolia L., AMBEL); assay: as above
Text: as §1, §2, §3, §4, §5

[16] = system: green foxtail (Setaria viridis, SETVI); assay: as above
Text: as §1, §2, §3, §4, §5

[17] = system: ivyleaf morningglory (Ipomoea hederacea, IPOHE); assay: as above
Text: as §1, §2, §3, §4, §5

[18] = system: johnsongrass (Sorghum halepense, SORHA); assay: as above
Text: as §1, §2, §3, §4, §5

[19] = system: lambsquarters (Chenopodium album, CHEAL); assay: as above
Text: as §1, §2, §3, §4, §5

[20] = system: large crabgrass (Digitaria sanguinalis, DIGSA); assay: as above
Text: as §1, §2, §3, §4, §5

[21] = system: redroot pigweed (Amaranthus retroflexus, AMARE); assay: as above
Text: as §1, §2, §3, §4, §5

[22] = system: sicklepod (Cassia obtusifolia, CASOB); assay: as above
Text: as §1, §2, §3, §4, §5

[23] = system: velvetleaf (Abutilon theophrasti, ABUTH); assay: as above
Text: as §1, §2, §3, §4, §5

[24] = system: field corn (Zea mays L., var. Dekalb 535, CORN); assay: Post-emerge greenhouse screening, crop safety / corn selectivity (phytotoxicity rating)
Text: as §1, §2, §3, §4, §5

[25] = system: soybean (Glycine max L., var. Pella 86, SOY); assay: Post-emerge greenhouse screening, crop safety (phytotoxicity rating)
Text: as §1, §2, §3, §4, §5

[26] = system: upland rice (Oryza sp., var.Tebonnet, RICE); assay: as above
Text: as §1, §2, §3, §4, §5

Cn1c(=S)n(C)c(=O)n(-c2cc(Oc3ccccc3)c(Cl)cc2F)c1=O [Compound 2-16]
ECHCG phytotoxicity rating (0-100 scale) ([1]; 125 g ai/ha): 35 | ECHCG phytotoxicity rating (0-100 scale) ([1]; 250 g ai/ha): 60 | AMBEL phytotoxicity rating (0-100 scale) ([2]; 125 g ai/ha): 50 | AMBEL phytotoxicity rating (0-100 scale) ([2]; 250 g ai/ha): 55 | SETVI phytotoxicity rating (0-100 scale) ([3]; 125 g ai/ha): 60 | SETVI phytotoxicity rating (0-100 scale) ([3]; 250 g ai/ha): 95 | IPOHE phytotoxicity rating (0-100 scale) ([4]; 125 g ai/ha): 0 | IPOHE phytotoxicity rating (0-100 scale) ([4]; 250 g ai/ha): 10 | SORHA phytotoxicity rating (0-100 scale) ([5]; 125 g ai/ha): 35 | SORHA phytotoxicity rating (0-100 scale) ([5]; 250 g ai/ha): 75 | CHEAL phytotoxicity rating (0-100 scale) ([6]; 125 g ai/ha): 100 | CHEAL phytotoxicity rating (0-100 scale) ([6]; 250 g ai/ha): 100 | DIGSA phytotoxicity rating (0-100 scale) ([7]; 125 g ai/ha): 75 | DIGSA phytotoxicity rating (0-100 scale) ([7]; 250 g ai/ha): 80 | AMARE phytotoxicity rating (0-100 scale) ([8]; 125 g ai/ha): 99 | AMARE phytotoxicity rating (0-100 scale) ([8]; 250 g ai/ha): 100 | CASOB phytotoxicity rating (0-100 scale) ([9]; 125 g ai/ha): 20 | CASOB phytotoxicity rating (0-100 scale) ([9]; 250 g ai/ha): 35 | ABUTH phytotoxicity rating (0-100 scale) ([10]; 125 g ai/ha): 55 | ABUTH phytotoxicity rating (0-100 scale) ([10]; 250 g ai/ha): 60 | CORN crop damage, phytotoxicity rating (0-100 scale) ([11]; 125 g ai/ha): 0 | CORN crop damage, phytotoxicity rating (0-100 scale) ([11]; 250 g ai/ha): 5 | SOY crop damage, phytotoxicity rating (0-100 scale) ([12]; 125 g ai/ha): 0 | SOY crop damage, phytotoxicity rating (0-100 scale) ([12]; 250 g ai/ha): 0 | RICE crop damage, phytotoxicity rating (0-100 scale) ([13]; 125 g ai/ha): 0 | RICE crop damage, phytotoxicity rating (0-100 scale) ([13]; 250 g ai/ha): 0 | ECHCG phytotoxicity rating (0-100 scale) ([14]; 125 g ai/ha): 0 | ECHCG phytotoxicity rating (0-100 scale) ([14]; 250 g ai/ha): 35 | AMBEL phytotoxicity rating (0-100 scale) ([15]; 125 g ai/ha): 0 | AMBEL phytotoxicity rating (0-100 scale) ([15]; 250 g ai/ha): 0 | SETVI phytotoxicity rating (0-100 scale) ([16]; 125 g ai/ha): 50 | SETVI phytotoxicity rating (0-100 scale) ([16]; 250 g ai/ha): 50 | IPOHE phytotoxicity rating (0-100 scale) ([17]; 125 g ai/ha): 0 | IPOHE phytotoxicity rating (0-100 scale) ([17]; 250 g ai/ha): 0 | SORHA phytotoxicity rating (0-100 scale) ([18]; 125 g ai/ha): 0 | SORHA phytotoxicity rating (0-100 scale) ([18]; 250 g ai/ha): 0 | CHEAL phytotoxicity rating (0-100 scale) ([19]; 125 g ai/ha): 70 | CHEAL phytotoxicity rating (0-100 scale) ([19]; 250 g ai/ha): 70 | DIGSA phytotoxicity rating (0-100 scale) ([20]; 125 g ai/ha): 0 | DIGSA phytotoxicity rating (0-100 scale) ([20]; 250 g ai/ha): 0 | AMARE phytotoxicity rating (0-100 scale) ([21]; 125 g ai/ha): 80 | AMARE phytotoxicity rating (0-100 scale) ([21]; 250 g ai/ha): 80 | CASOB phytotoxicity rating (0-100 scale) ([22]; 125 g ai/ha): 0 | CASOB phytotoxicity rating (0-100 scale) ([22]; 250 g ai/ha): 0 | ABUTH phytotoxicity rating (0-100 scale) ([23]; 125 g ai/ha): 0 | ABUTH phytotoxicity rating (0-100 scale) ([23]; 250 g ai/ha): 40 | CORN crop damage, phytotoxicity rating (0-100 scale) ([24]; 125 g ai/ha): 0 | CORN crop damage, phytotoxicity rating (0-100 scale) ([24]; 250 g ai/ha): 0 | SOY crop damage, phytotoxicity rating (0-100 scale) ([25]; 125 g ai/ha): 0 | SOY crop damage, phytotoxicity rating (0-100 scale) ([25]; 250 g ai/ha): 0 | RICE crop damage, phytotoxicity rating (0-100 scale) ([26]; 125 g ai/ha): 0 | RICE crop damage, phytotoxicity rating (0-100 scale) ([26]; 250 g ai/ha): 0

— patent US6613718B2, “Aryl ether derivatives and processes for their preparation and herbicidal and desiccant compositions containing them” (Ishihara Sangyo Kaisha, Ltd., priority 2001, dated 2003)
